What all share (assay): NCI-60 cell line screen, 48 h
For assay [1], the system named is LOX IMVI melanoma.
The subject of assay [2] is HS 578T breast.
Assay [3] relates to MALME-3M melanoma.
Assay [4] has as its system M14 melanoma.
Assay [5] relates to A549 NSCLC.
For assay [6], the system named is NCI-H522 lung.
In assay [7] the test system is SR leukemia.
Assay [8] concerns UACC-257 melanoma.
Assay [9] has as its system KM12 colon.
The subject of assay [10] is OVCAR-3 ovarian.
The test system of assay [11] is SNB-75 CNS.
The subject of assay [12] is PC-3 prostate.
Assay [13] concerns COLO 205 colon.
In assay [14] the test system is NCI-H23 lung.
For assay [15], the system named is HCT-116 colon.
Assay [16] relates to NCI/ADR-RES ovarian.

Several values for one entry are separate records, joined by “and”; a condition that tells them apart may be missing. Identical values can stand only once.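 How tested: cells in 96-well plates exposed to compound for 48 hours at five concentrations. GI50: concentration for 50% inhibition of growth. Definition used: TGI = concentration required for complete inhibition of growth.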

With `CC1OC(OC2C(OC(=O)[C@]34CCC(C)(C)C[C@H]3C3=CC[C@@H]5[C@@]6(C)CC[C@H](OC7OC(C(=O)O)C(O)C(O)C7O)C(C)(C)[C@@H]6CC[C@@]5(C)[C@]3(C)C[C@H]4O)OCC(O)C2O)C(O)C(O)C1OC1OCC(O)C(O)C1O` (stereo partly specified), the TGI in assay [1] was 30.9 µM and 29.5 µM; in assay [2], 39.5 µM and 39.3 µM; in assay [3], 27.8 µM and 25.6 µM; in [4] it was 28.1 µM and 21.6 µM; in [5], 25.3 µM and 20.4 µM; in [6], 24.4 µM. In addition, the TGI was 23 µM and > 100 µM in assay [7]; 32.6 µM and 34.1 µM in assay [8]; 22.3 µM and 14.2 µM in [9]; 32.2 µM and 29.1 µM in [10]; 29.9 µM and 31.3 µM in assay [11]; 23.7 µM and 18.6 µM in assay [12]. Also, the TGI in assay [13] is 12.3 µM and 3.98 µM; in assay [14], 18.2 µM and 20.7 µM; in assay [15], 28.1 µM and 22.1 µM; in assay [16] it was 27.1 µM and 19 µM. Besides, the GI50 in [5] is 11.8 µM and 5.48 µM; in assay [9], 9.85 µM and 3.45 µM; in assay [12], 11.3 µM and 5.07 µM; in [16], 13 µM and 5.11 µM.

As to `CC(C)[N+]([O-])(CCCNc1c2ccccc2nc2cccc([N+](=O)[O-])c12)C(C)C`, the TGI in assay [1] amounted to 0.427 µM; in assay [2], 0.402 µM; in assay [3] it was 0.106 µM; in assay [4] it was 0.305 µM; in assay [5] it was 2.53 µM; in assay [6], 0.147 µM. The TGI in assay [7] is 1.15 µM; in [8] it was 0.333 µM; in assay [9], 2.53 µM; in assay [10], 1.07 µM; in assay [11], 0.629 µM; in assay [12] it was 11.5 µM. Further, the TGI in assay [13] came to 0.0577 µM; in assay [14] it was 0.168 µM; in assay [15] it was 3.94 µM; in assay [16], 8.76 µM.

In the case of `CNC(=O)C(C)NC(=O)C(Cc1ccccc1)NC(=O)c1ccccc1` (stereo unspecified), the TGI in assay [1], in assay [2], in [3], in [4], in assay [5] and in assay [6] was greater than 100 µM each time. In addition, the TGI in assay [7], in assay [8], in assay [9], in [10], in [11] and in [12] was greater than 100 µM in each case. For the same compound, the TGI in assay [13], in assay [14], in assay [15] and in [16] was greater than 100 µM in each case.

Turning to `O=C1/C(=C/c2cccc(Cl)c2)CCCc2ccccc21`, the TGI is 32.8 µM in assay [1]; 32.9 µM in [2]; 33.8 µM in assay [3]; 29.9 µM in assay [4]; greater than 100 µM in assay [5]; 32.1 µM in assay [6]. In addition, the TGI in assay [7] is 35.2 µM; in [8] it was 46.5 µM; in [9] it was 32.3 µM; in assay [10] it was 55.8 µM; in assay [11], greater than 100 µM; in assay [12], 38.3 µM. In addition, the TGI is 38.5 µM in [13], 36 µM in assay [14], 26.1 µM in assay [15] and 35.9 µM in assay [16].

Consider `CCOC1CN=C(Nc2cccc3ccccc23)S1` (stereo unspecified), for which the TGI in [1], in assay [2], in [3], in assay [4], in assay [5] and in assay [6] was greater than 10 µM each time. The TGI in assay [7], in assay [8], in assay [9], in [10], in assay [11] and in [12] was greater than 10 µM in each case. The TGI in assay [13], in assay [14], in assay [15] and in assay [16] was greater than 10 µM in each case.

Regarding `CC(=O)O[C@@H]1C[C@]2(C(=O)c3ccccc3)C(=O)C(=O)S[C@]12c1ccccc1`, the TGI in [1], in assay [2], in assay [3], in assay [4], in assay [5] and in assay [6] was greater than 100 µM each time. Moreover, the TGI in assay [7] is 83.1 µM; in [8], greater than 100 µM; in assay [9] it was greater than 100 µM; in assay [10] it was greater than 100 µM; in [11], greater than 100 µM; in [12] it was greater than 100 µM. In addition, the TGI in assay [13], in [14], in assay [15] and in assay [16] was greater than 100 µM in each case.

Turning to `CC[C@]12C=CCN3CC[C@@]4(c5cc(N=O)c(OC)cc5N(C)[C@H]4[C@@](O)(C(=O)OC)[C@@H]1OC(C)=O)[C@@H]32`, the TGI in assay [1] was greater than 100 µM; in assay [2], greater than 100 µM; in [3] it was greater than 100 µM; in [4] it was greater than 100 µM; in [5], greater than 100 µM; in [6], 36.5 µM. The TGI in [7], in assay [8], in assay [9], in [10], in assay [11] and in assay [12] was greater than 100 µM throughout. Besides, the TGI in assay [13], in [14], in [15] and in assay [16] was greater than 100 µM in each case.

As to `C=CCN(c1cc(OC)c(NC(C)=O)cc1[N+](=O)[O-])S(C)(=O)=O`, the TGI was greater than 100 µM in [1]; greater than 100 µM in assay [2]; 68.5 µM in [3]; greater than 100 µM in assay [4]; greater than 100 µM in assay [5]; 12.5 µM in assay [6]. For the same compound, the TGI in assay [7], in assay [8], in [9], in assay [10], in assay [11] and in [12] was greater than 100 µM throughout. Also, the TGI in assay [13], in assay [14], in assay [15] and in assay [16] was greater than 100 µM each time.

Regarding `CCOC(=O)C1(C#N)OC(=O)c2cnccc21` (stereo unspecified), the TGI in assay [1], in [2], in assay [3], in assay [4], in assay [5] and in assay [6] was greater than 100 µM throughout. Besides, the TGI in assay [7], in assay [8], in assay [9], in [10], in assay [11] and in assay [12] was greater than 100 µM each time. Also, the TGI in [13], in [14], in assay [15] and in [16] was greater than 100 µM in each case.

As to `CCOC(=O)c1cc(C2CCN(c3ccccc3)C2=O)c(/C(O)=C/C(C)=O)[nH]1` (stereo unspecified), the TGI in assay [1], in assay [2], in assay [3], in [4], in assay [5] and in [6] was greater than 100 µM in each case. Moreover, the TGI in assay [7], in [8], in [9], in [10], in [11] and in [12] was greater than 100 µM each time. In addition, the TGI in assay [13], in assay [14], in assay [15] and in assay [16] was greater than 100 µM in each case.

As to `COc1ccc2c(c1)Cc1c(NCCN(C)C)ccc(C(=O)NCCCN(C)CCCNC(=O)c3ccc(NCCN(C)C)c4c3Nc3ccc(OC)cc3C4)c1N2`, the TGI amounted to 0.766 µM in assay [1]; 0.332 µM in assay [2]; 0.209 µM in [3]; 1.79 µM in assay [4]; 0.512 µM in assay [5]; 0.0514 µM in [6]. Moreover, the TGI in [7] amounted to 0.502 µM; in assay [8] it was 1.1 µM; in assay [9] it was 0.887 µM; in assay [10], 1.21 µM; in [11], 0.103 µM; in [12], 0.838 µM. Moreover, the TGI in [13] was 0.207 µM; in assay [14] it was 0.581 µM; in [15], 0.239 µM; in assay [16], greater than 100 µM.

For the compound `O=c1ccc2ccc(OP(=O)(O)O)cc2o1`, the TGI in assay [1], in assay [2], in assay [3], in assay [4], in assay [5] and in [6] was greater than 100 µM each time. For the same compound, the TGI in assay [7], in assay [8], in [9], in assay [10], in [11] and in assay [12] was greater than 100 µM in each case. Besides, the TGI in assay [13], in assay [14], in assay [15] and in [16] was greater than 100 µM in each case.

Take `CCOC(=O)Cc1csc(NC(NC(=O)OCC)(C(=O)OCC)C(F)(F)F)n1` (stereo unspecified): the TGI in [1], in assay [2], in assay [3], in [4], in assay [5] and in assay [6] was greater than 100 µM throughout. Also, the TGI in assay [7], in assay [8], in [9], in assay [10], in [11] and in [12] was greater than 100 µM each time. Besides, the TGI in assay [13], in assay [14], in [15] and in [16] was greater than 100 µM each time.

Take `Cc1cc(NC2=CC(=O)C(=O)c3ccccc32)no1`: the TGI in [1] is 4.06 µM; in assay [2], 40.9 µM; in assay [3], 5.92 µM; in assay [4], 28.3 µM; in assay [5], 19.4 µM; in assay [6], 34.5 µM. Also, the TGI in assay [7] is greater than 48.1 µM; in assay [8] it was 16.7 µM; in [9], 29.7 µM; in assay [10] it was 14.1 µM; in assay [11], 23 µM; in assay [12], 53.9 µM. The TGI in [13] was determined as 31.6 µM; in assay [14], 39.8 µM; in assay [15], 34.4 µM; in assay [16], 15.6 µM.

With `Cc1ccc(CC(Cc2ccccc2C)C(=O)O)c(C(=O)O)c1` (stereo unspecified), the TGI in assay [1], in assay [2], in assay [3], in assay [4], in assay [5] and in assay [6] was greater than 100 µM each time. Moreover, the TGI in [7], in assay [8], in assay [9], in assay [10], in [11] and in assay [12] was greater than 100 µM in each case. In addition, the TGI in assay [13], in assay [14], in [15] and in assay [16] was greater than 100 µM throughout.

Take `C=C(Cl)C(Cl)(CBr)CCC(Br)C(C)(C)Br` (stereo unspecified): the TGI in assay [1] turned out to be 33.3 µM; in assay [2], 12.1 µM; in [3], 29.6 µM; in [4], 33.6 µM; in [5], 16.3 µM; in [6] it was 19.3 µM. The TGI was 32.9 µM in assay [7]; 4.4 µM in assay [8]; 3.45 µM in assay [9]; 6.65 µM in assay [10]; 5.45 µM in assay [11]; 5.68 µM in [12]. Moreover, the TGI in assay [13] was 10.8 µM; in assay [14], 31.5 µM; in assay [15], 4.04 µM; in [16], greater than 55.4 µM.

For the compound `CCOC1OC(COC(=O)C(C)(C)C)C(O)CC1n1cc(C)c(=O)[nH]c1=O` (stereo unspecified), the TGI in assay [1], in assay [2], in assay [3], in assay [4], in [5] and in [6] was greater than 100 µM each time. For the same compound, the TGI in [7], in assay [8], in [9], in assay [10], in assay [11] and in assay [12] was greater than 100 µM throughout. In addition, the TGI in assay [13], in assay [14], in [15] and in [16] was greater than 100 µM throughout.

The values are drawn from PubChem BioAssay (NCI).
